Experimental data from patent US11142515B2, “Pyrazolyl-ureas as kinase inhibitors” (RESPIVERT LIMITED, priority 2014, dated 2021).

Assays:
[1] = test system: alveolar macrophages and neutrophils in BALF; test: Cigarette smoke model: macrophages and neutrophils in BALF; assay type: in vivo, A/J mice; conditions: 1.75 μg/mouse (35 μL, bid, i.n.)
Procedure: A/J mice (males, 5 weeks old) were exposed to cigarette smoke (4% cigarette smoke, diluted with air) for 30 min/day for 11 days using a Tobacco Smoke Inhalation Experiment System for small animals (Model SIS-CS; Sibata Scientific Technology, Tokyo, Japan). […] At 12 h after the last […], each of the animals was anesthetized, the trachea cannulated and bronchoalveolar lavage fluid (BALF) was collected. The numbers of alveolar macrophages and neutrophils were determined by FACS analysis (EPICS® ALTRA II, Beckman Coulter, Inc., Fullerton, Calif., USA) using anti-mouse MOMA2 antibody (macrophage) or anti-mouse 7/4 antibody (neutrophil). BALF was centrifuged and the supernatant was collected. The level of keratinocyte chemoattractant (KC; CXCL1) in BALF was quantitated using a Quantikine® mouse KC ELISA kit (R&D systems, Inc., Minneapolis, Minn., USA).

[2] = test system: neutrophil accumulation in BALF; test: LPS-induced neutrophil accumulation in mice; assay type: in vivo, Balb/c mice; conditions: 1.75 μg/mouse
Procedure: Non-fasted Balb/c mice were […] by the intra tracheal route with either vehicle, or the test substance at the indicated times (within the range 2-8 h) before stimulation of the inflammatory response by application of an LPS challenge. At T=0, mice were placed into an exposure chamber and exposed to LPS (7.0 mL, 0.5 mg/mL solution in PBS for 30 min). After a further 8 h the animals were anesthetized, their tracheas cannulated and BALF extracted by infusing and then withdrawing from their lungs 1.0 mL of PBS via the tracheal catheter. Total and differential white cell counts in the BALF samples were measured using a Neubaur haemocytometer. Cytospin smears of the BALF samples were prepared by centrifugation at 200 rpm for 5 min at RT and stained using a DiffQuik stain system (Dade Behring). Cells were counted using oil immersion microscopy. Data for neutrophil numbers in BAL are shown as mean±S.E.M. (standard error of the mean). The percentage inhibition of neutrophil accumulation was calculated for each treatment relative to vehicle treatment.

[3] = test system: sputum macrophages from COPD patients; test: Cytokine production in LPS-treated sputum macrophages from COPD patients; assay type: cell-based, human
Procedure: Patients with COPD inhaled a nebulised solution of 3% (w/v) hypertonic saline using an ultrasonic nebuliser (Devilbiss, Carthage, Mo.) with tidal breathing for 5 min. This procedure was repeated a maximum of three times until enough sputum was obtained. The sputum samples were homogenized and mixed vigorously using a vortex mixer in 0.02% v/v dithiothreitol (DTT) solution. The samples were re-suspended in PBS (40 mL) followed by centrifugation at 1500 rpm at 4° C. for 10 min to obtain sputum cell pellets. The pellets were washed with PBS (40 mL). The sputum cells were then re-suspended in 4 mL macrophage serum-free medium (macrophage-SFM, Life technologies, containing 20 U/mL penicillin, 0.02 mg/mL streptomycin and 5 μg/mL amphotericin B) and seeded on high bound 96-well plate, followed by incubation for 1 h at 37° C. and at 5% CO2 to allow the macrophages to attach to the bottom of the plate. The cells on the plate were washed with fresh macrophage-SFM (200 μL/well) to remove neutrophils and other contaminated cells. The adherent cells (mainly sputum macrophages) on the plate were used for further analysis. Sputum inductions were conducted in Quintiles Drug Research Unit at Guys Hospital and ethics approval and written informed consent was obtained by Quintiles.
Where appropriate, 1 μL of a solution containing either the test compound or reference article at the stated concentrations (either 0.1 μg/mL, 0.01 μg/mL, or 0.001 μg/mL) or alternatively 1 μL of DMSO as the vehicle control was added to each well (200 μL in media) and the cells were incubated for 2 h. The cells were stimulated with LPS solution (50 μL, final concentration: 1 μg/mL) and incubated for 18 h at 37° C. and 5% CO2. The supernatant was then collected and kept at −80° C. Suitable luminex kits were used to measure the selected analytes. After thawing the supernatant, the magnetic antibody beads were multiplexed and incubated in a 96-well plate with standard, background solution or the appropriate volume of sample overnight with shaking at 4° C. After washing twice with 200 μL of wash buffer provided by the kit per well using a magnetic plate washer, the beads were incubated for 1 h at RT with the biotin conjugated antibody solution provided by the kit with shaking. Streptavidin solution was added for 30 min with shaking at RT. After washing with 200 μL wash buffer per well, the beads were resuspended in sheath fluid (150 μL) and analyzed immediately. The level of each analyte in the supernatant was calculated using Xcel Fit software with a 4 or 5-parameter equation using each standard curve. The inhibitions of each cytokine production were calculated at each concentration by comparison with vehicle control.

[4] = test system: HRV (RV16)-induced IL-8 release in BEAS2B cells; test: Rhinovirus-induced IL-8 release in BEAS2B cells; assay type: cell-based, human
Procedure: Human rhinovirus RV16 is obtained from the American Type Culture Collection (Manassas, Va.). Viral stocks are generated by infecting MRC5 cells with HRV until 80% of the cells were cytopathic.
BEAS2B cells are infected with HRV at an MOI of 1.2 and incubated for 1 h at 33° C. with gentle shaking to promote absorption. The cells are then washed with PBS, fresh media added and the cells are incubated for a further 72 h. The supernatant is collected for assay of IL-8 concentrations using a Duoset ELISA development kit (R&D systems, Minneapolis, Minn.). Compounds are added 2 h before HRV infection and 1 h after infection when non-infected HRV is washed out.

Syk = target: T1, Syk (Homo sapiens, UniProt P43405); test: Syk enzyme inhibition (Z-LYTE FRET); assay type: biochemical
T1 construct: purchased Life Technologies
Procedure: (§1) The enzyme inhibitory activities of compounds disclosed herein were determined by FRET using synthetic peptides labelled with both donor and acceptor fluorophores (Z-LYTE, Life Technologies, Paisley, UK).
The relevant enzyme (1000 ng/mL, 1400 ng/mL or 2000 ng/mL respectively, 2.5 μL) was incubated with the test compound (either 40 μg/mL, 12 μg/mL, 4 μg/mL, 1.2 μg/mL, 0.4 μg/mL, 0.12 μg/mL, 0.04 μg/mL, 0.012 μg/mL, 0.004 μg/mL or 0.0012 μg/mL, 2.5 μL each) for 2 h at RT. The FRET peptides (8 μM, 2.5 μL), and appropriate ATP solutions (2.5 μL, 800 μM for c-Src, and 60 μM ATP for HCK and Syk) were then added to the enzyme/compound mixtures and incubated for 1 h at RT. Development reagent (protease, 5 μL) was added for 1 h prior to detection in a fluorescence microplate reader (EnVision, Perkin Elmer).
(§2) In all cases, the site-specific protease cleaves non-phosphorylated peptide only and eliminates the FRET signal. Phosphorylation levels of each reaction were calculated using the ratio of coumarin emission (donor) over fluorescein emission (acceptor), for which low ratios indicate high phosphorylation and high ratios indicate low phosphorylation levels.

d-U937 cells = test: Cell viability: MTT assay in differentiated U937 cells; assay type: cell-based, human; conditions: 10 μg/mL
Procedure: Differentiated U937 cells were pre-incubated with each test compound (final concentration 10 μg/mL in 200 μL media indicated below) under two protocols: the first for 4 h in 5% FCS RPMI1640 media and the second in 10% FCS RPMI1640 media for 24 h. The supernatant was replaced with new media (200 μL) and MTT stock solution (10 μL, 5 mg/mL) was added to each well. After incubation for 1 h the media were removed, DMSO (200 μL) was added to each well and the plates were shaken lightly for 1 h prior to reading the absorbance at 550 nm. The percentage loss of cell viability was calculated for each well relative to vehicle (0.5% DMSO) treatment. Consequently an apparent increase in cell viability for drug treatment relative to vehicle is tabulated as a negative percentage.

GSK 3α enzyme isoform = target: T2, GSK 3α enzyme isoform (Homo sapiens, UniProt P49840); test: GSK 3α enzyme inhibition (Z-LYTE FRET); assay type: biochemical
T2 construct: purchased Life Technologies
Procedure: as §1
The GSK3a protein (500 ng/mL, 2.5 μL) was incubated with the test compound (2.5 μL at either 40 μg/mL, 12 μg/mL, 4 μg/mL, 1.2 μg/mL, 0.4 μg/mL, 0.12 μg/mL, 0.04 μg/mL, 0.012 μg/mL, 0.004 μg/mL or 0.0012 μg/mL) for 2 h at RT. The FRET peptide (8 μM, 2.5 μL), which is a phosphorylation target for GSK3α, and ATP (40 μM, 2.5 μL) was then added to the enzyme/compound mixture and the resulting mixture incubated for 1 h at RT. Development reagent (protease, 5 μL) was added for 1 h prior to detection in a fluorescence microplate reader (EnVision, Perkin Elmer).
as §2

PBMCs (mitosis) = test: Cell mitosis assay in PHA-treated PBMCs; assay type: cell-based, human
Procedure: Peripheral blood mononucleocytes (PBMCs) from healthy subjects were separated from whole blood (Quintiles, London, UK) using a density gradient (Histopaquee-1077, Sigma-Aldrich, Poole, UK). The PBMCs (3 million cells per sample) were subsequently treated with 2% PHA (Sigma-Aldrich, Poole, UK) for 48 h, followed by a 20 h exposure to varying concentrations of test compounds. At 2 h before collection, PBMCs were treated with demecolcine (0.1 μg/mL; Life Technologies, Paisley, UK,) to arrest cells in metaphase.

T2 sequence (P49840 whole entry, canonical isoform): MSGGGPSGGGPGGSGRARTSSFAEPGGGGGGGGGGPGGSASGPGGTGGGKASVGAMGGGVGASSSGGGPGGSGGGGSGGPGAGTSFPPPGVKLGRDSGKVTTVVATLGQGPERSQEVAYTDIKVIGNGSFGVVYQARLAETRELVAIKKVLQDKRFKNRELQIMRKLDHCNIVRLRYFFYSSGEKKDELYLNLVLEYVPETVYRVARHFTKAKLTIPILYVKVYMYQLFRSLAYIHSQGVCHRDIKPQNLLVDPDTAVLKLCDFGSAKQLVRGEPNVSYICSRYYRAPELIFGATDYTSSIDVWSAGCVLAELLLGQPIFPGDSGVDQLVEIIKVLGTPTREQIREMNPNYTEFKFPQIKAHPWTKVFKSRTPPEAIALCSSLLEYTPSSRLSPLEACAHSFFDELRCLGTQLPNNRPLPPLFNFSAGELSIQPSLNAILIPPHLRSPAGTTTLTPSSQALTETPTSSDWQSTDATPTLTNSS

| SMILES | neutrophil or macrophage accumulation into airways (cigarette smoke model) [1] | inhibition of LPS-induced neutrophil accumulation [2] | inhibition at 0.1 µg/mL ([3]; Homo sapiens, Macrophage, read-out: E-max (maximum inhibition), IL-6 production in LPS-treated sputum macrophages) | inhibition of HRV-induced IL-8 (FIG. 1) [4] | inhibitory activity against Syk (in words) (Syk) | MTT Assay Cell viability at time point indicated in d-U937 Cells, 4 h (d-U937 cells; 4 h) | MTT Assay Cell viability at time point indicated in d-U937 Cells, 24 h (d-U937 cells; 24 h) | inhibition of pro-inflammatory cytokine production in sputum macrophage compared with fluticasone propionate [3] | inhibitory activity against GSK3a (in words) (GSK 3α enzyme isoform) | impact on cell division (mitosis) compared with Reference Compound (PBMCs (mitosis)) |
| --- | --- | --- | --- | --- | --- | --- | --- | --- | --- | --- |
| CCC(=O)O[C@]1(C(=O)SCF)[C@H](C)C[C@H]2[C@@H]3C[C@H](F)C4=CC(=O)C=C[C@]4(C)[C@@]3(F)[C@@H](O)C[C@@]21C [Fluticasone propionate, fluticasone propionate, reference compound] | did not inhibit | > 80% | 42% |  |  |  |  |  |  |  |
| CCc1cncc(Nc2cc(COc3ccc(NC(=O)Nc4cc(C(C)(C)C)nn4-c4ccc(C)cc4)c4ccccc34)ccn2)n1 [Example 2, 1-(3-(tert-Butyl)-1-(p-tolyl)-1H-pyrazol-5-yl)-3-(4-((2-((6-ethylpyrazin-2-yl)amino)pyridin-4-yl)methoxy)naphthalen-1-yl)urea] |  |  |  | dose-dependent inhibition | very much weaker than the Reference Compound | − (−ve and +ve indicate the value is below and above, respectively, the no significant effect threshold defined as 30% inhibition at 10 μg/mL at the time point indicated) | − (−ve and +ve indicate the value is below and above, respectively, the no significant effect threshold defined as 30% inhibition at 10 μg/mL at the time point indicated) | higher efficacy | very much weaker than the Reference Compound | markedly less activity |
